Assay results taken from patent US20210215714A1, “COMPLEMENT ALTERNATIVE PATHWAY-ASSOCIATED NEPHROPATHY BIOMARKERS” (Achillion Pharmaceuticals, Inc., priority 2018, published 2021).

Tested on: sC5b-9
Experiment: Phase 2a study: urinary sC5b-9 (MicroVue sC5b-9 Enzyme Immunoassay);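 note: urine from C3 glomerulopathy or IC-MPGN patients, sandwich ELISA capturing sC5b-9 via C9-ring monoclonal with HRP detection read at 450 nm, values raw or normalized to creatinine or albumin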
[1] = Patient A, 100 mg TID, Day 1/0 Hour
[2] = Patient A, 100 mg TID, Day 7/0 Hour
[3] = Patient A, 100 mg TID, Day 15 Taper
[4] = Patient A, 100 mg TID, Day 16 Taper
[5] = Patient A, 100 mg TID, Day 17 Taper
[6] = Patient A, 100 mg TID, Day 21 Taper
[7] = Patient A, 100 mg TID, Follow-Up Day 24
[8] = Patient A, 100 mg TID, Follow-Up Day 28
[9] = Patient A, 100 mg TID, Follow-Up Day 49
[10] = Patient B, 100 mg TID, Day 1/0 Hour
[11] = Patient B, 100 mg TID, Day 7/0 Hour
[12] = Patient B, 100 mg TID, Day 15 Taper
[13] = Patient B, 100 mg TID, Day 16 Taper
[14] = Patient B, 100 mg TID, Day 17 Taper
[15] = Patient B, 100 mg TID, Day 21 Taper
[16] = Patient B, 100 mg TID, Follow-Up Day 24
[17] = Patient B, 100 mg TID, Follow-Up Day 28
[18] = Patient B, 100 mg TID, Follow-Up Day 49
[19] = Patient C, 200 mg TID, Day 1/0 Hour
[20] = Patient C, 200 mg TID, Day 7/0 Hour
[21] = Patient C, 200 mg TID, Day 15 Taper
[22] = Patient C, 200 mg TID, Day 16 Taper
[23] = Patient C, 200 mg TID, Day 17 Taper
[24] = Patient C, 200 mg TID, Day 21 Taper
[25] = Patient C, 200 mg TID, Follow-Up Day 24
[26] = Patient C, 200 mg TID, Follow-Up Day 28
[27] = Patient C, 200 mg TID, Follow-Up Day 49
[28] = Patient C, 200 mg TID, Screen 1
[29] = Patient D, 200 mg TID, Day 1/0 Hour
[30] = Patient D, 200 mg TID, Day 7/0 Hour
[31] = Patient D, 200 mg TID, Day 15 Taper
[32] = Patient D, 200 mg TID, Day 17 Taper

Text: 10 patients with either C3 Glomerulopathy (C3G) or Immune-Complex Membranoproliferative Glomerulonephritis (IC-MPGN) are to be enrolled across two dose groups. […] Inclusion criteria include a clinical diagnosis of C3G (C3 glomerulonephritis [C3GN] or dense deposit disease [DDD], the 2 types of C3G) or idiopathic immune-complex membranoproliferative glomerulonephritis (IC-MPGN) by renal biopsy for at least 3 months prior to dosing, with the pathologic diagnosis verified by review of the renal biopsy by the study central pathologist. Patients must have low C3 levels (<50% of the lower limit of normal) and normal or near-normal C4 levels (>90% of the lower limit of normal).
To measure urinary sC5b-9 production, patient urine samples were tested utilizing the MicroVue sC5b-9 Enzyme Immunoassay for the quantitation of sC5b-9 in urine. […] The samples were tested utilizing the MicroVue sC5b-9 Enzyme Immunoassay for the quantitation of sC5b-9 urine, which is a three-step procedure utilizing a micro-assay plate coated with a mouse monoclonal antibody that binds specifically to the C9 ring of sC5b-9, HRP-conjugated antibodies to antigens of sC5b-9, and a chromogenic substrate. In step 1, standards, controls, and test specimens are added to micro-assay wells pre-coated with an anti-sC5b-9 specific monoclonal antibody. sC5b-9 present in the Standards, Controls, or specimens will bind to the immobilized sC5b-9 monoclonal antibody. After incubation, a wash cycle removes unbound material. […] In step 2, horseradish peroxidase (HRP)-conjugated antibodies to antigens of sC5b-9 are added to each test well. The enzyme conjugated antibodies bind to sC5b-9 that was captured by the monoclonal anti-sC5b-9 bound on the surface of the micro-assay wells. After incubation, a wash cycle removes unbound, excess conjugate. In step 3, a chromogenic enzyme substrate is added to each micro-assay well. The bound HRP-conjugate reacts with the substrate, forming a blue color. After incubation the enzyme reaction is stopped chemically, the color changes to yellow, and the color intensity is measured spectrophotometrically at 450 nm. The color intensity of the reaction mixture is proportional to the concentration of sC5b-9 present in the test specimens, standards, and controls. […] Measurements of urinary biomarkers are typically normalized to urine creatinine or albumin levels to account for variation in biomarker levels due to changes in urinary filtration rate.

For `CC(=O)c1nn(CC(=O)N2C[C@H](F)C[C@H]2C(=O)Nc2cccc(Br)n2)c2ccc(-c3cnc(C)nc3)cc12` [Compound 1, (2S,4R)-1-(2-(3-acetyl-5-(2-methylpyrimidin-5-yl)-1H-indazol-1-yl)acetyl)-N-(6-bromopyridin-2-yl)-4-fluoropyrrolidine-2-carboxamide], the sC5b-9/ALB [1] was 38 ng/mg, the sC5b-9/Cr [1] was 9.9 µg/mmol and the “Urine sC5b-9” value (Patient A, 100 mg TID, Day 1 predose) was 81.2 ng/mL. For the same compound, the “Urine sC5b-9” value (Patient A, 100 mg TID, Day 4) was 84.2 ng/mL, the sC5b-9/ALB (Patient A, 100 mg TID, Day 4) was 48 ng/mg and the sC5b-9/Cr (Patient A, 100 mg TID, Day 4) was 10.5 µg/mmol. For the same compound, the “Urine sC5b-9” value (Patient A, 100 mg TID, Day 7) was 70.4 ng/mL, the sC5b-9/ALB [2] was 46 ng/mg and the sC5b-9/Cr [2] was 10.7 µg/mmol. For the same compound, the “Urine sC5b-9” value (Patient A, 100 mg TID, Day 10) was 52.0 ng/mL, the sC5b-9/ALB (Patient A, 100 mg TID, Day 10) was 37 ng/mg and the sC5b-9/Cr (Patient A, 100 mg TID, Day 10) was 8.4 µg/mmol. The “Urine sC5b-9” value [3] was 56.9 ng/mL, the sC5b-9/ALB [3] was 54 ng/mg and the sC5b-9/Cr [3] was 7.8 µg/mmol. The “Urine sC5b-9” value [4] was 66.2 ng/mL, the sC5b-9/ALB [4] was 62 ng/mg and the sC5b-9/Cr [4] was 8.8 µg/mmol. The “Urine sC5b-9” value [5] was 84.4 ng/mL, the sC5b-9/ALB [5] was 74 ng/mg and the sC5b-9/Cr [5] was 8.5 µg/mmol. For the same compound, the “Urine sC5b-9” value [6] was 85.8 ng/mL, the sC5b-9/ALB [6] was 70 ng/mg and the sC5b-9/Cr [6] was 9.9 µg/mmol. The “Urine sC5b-9” value [7] was 95.0 ng/mL, the sC5b-9/ALB [7] was 69 ng/mg and the sC5b-9/Cr [7] was 9.5 µg/mmol. For the same compound, the “Urine sC5b-9” value [8] was 79.7 ng/mL, the sC5b-9/ALB [8] was 61 ng/mg and the sC5b-9/Cr [8] was 8.0 µg/mmol. For the same compound, the “Urine sC5b-9” value [9] was 57.5 ng/mL, the sC5b-9/ALB [9] was 92 ng/mg and the sC5b-9/Cr [9] was 13.4 µg/mmol. For the same compound, the “Urine sC5b-9” value (Patient A, 100 mg TID, Screen) was 76.3 ng/mL, the sC5b-9/ALB (Patient A, 100 mg TID, Screen) was 40 ng/mg and the sC5b-9/Cr (Patient A, 100 mg TID, Screen) was 9.2 µg/mmol. For the same compound, the sC5b-9/ALB [10] was 1500 ng/mg, the sC5b-9/Cr [10] was 866 µg/mmol and the “Urine sC5b-9” value (Patient B, 100 mg TID, Day 1 predose) was 5280 ng/mL. For the same compound, the “Urine sC5b-9” value (Patient B, 100 mg TID, Day 4) was 2139 ng/mL, the sC5b-9/ALB (Patient B, 100 mg TID, Day 4) was 637 ng/mg and the sC5b-9/Cr (Patient B, 100 mg TID, Day 4) was 168 µg/mmol. The “Urine sC5b-9” value (Patient B, 100 mg TID, Day 7) was 2266 ng/mL, the sC5b-9/ALB [11] was 624 ng/mg and the sC5b-9/Cr [11] was 155 µg/mmol. The “Urine sC5b-9” value (Patient B, 100 mg TID, Day 10) was 1073 ng/mL, the sC5b-9/ALB (Patient B, 100 mg TID, Day 10) was 563 ng/mg and the sC5b-9/Cr (Patient B, 100 mg TID, Day 10) was 143 µg/mmol. For the same compound, the “Urine sC5b-9” value (Patient B, 100 mg TID, Day 14) was 4010 ng/mL, the sC5b-9/ALB (Patient B, 100 mg TID, Day 14) was 911 ng/mg and the sC5b-9/Cr (Patient B, 100 mg TID, Day 14) was 240 µg/mmol. For the same compound, the “Urine sC5b-9” value [12] was 3334 ng/mL, the sC5b-9/ALB [12] was 929 ng/mg and the sC5b-9/Cr [12] was 303 µg/mmol. The “Urine sC5b-9” value [13] was 4784 ng/mL, the sC5b-9/ALB [13] was 1154 ng/mg and the sC5b-9/Cr [13] was 380 µg/mmol. The “Urine sC5b-9” value [14] was 2693 ng/mL, the sC5b-9/ALB [14] was 907 ng/mg and the sC5b-9/Cr [14] was 238 µg/mmol. For the same compound, the “Urine sC5b-9” value [15] was 2469 ng/mL, the sC5b-9/ALB [15] was 821 ng/mg and the sC5b-9/Cr [15] was 305 µg/mmol. The “Urine sC5b-9” value [16] was 3958 ng/mL, the sC5b-9/ALB [16] was 1380 ng/mg and the sC5b-9/Cr [16] was 649 µg/mmol. For the same compound, the “Urine sC5b-9” value [17] was 2376 ng/mL, the sC5b-9/ALB [17] was 882 ng/mg and the sC5b-9/Cr [17] was 335 µg/mmol. The “Urine sC5b-9” value [18] was 14132 ng/mL, the sC5b-9/ALB [18] was 6312 ng/mg and the sC5b-9/Cr [18] was 883 µg/mmol. For the same compound, the “Urine sC5b-9” value (Patient B, 100 mg TID, Screen) was 2598 ng/mL, the sC5b-9/ALB (Patient B, 100 mg TID, Screen) was 724 ng/mg and the sC5b-9/Cr (Patient B, 100 mg TID, Screen) was 351 µg/mmol. For the same compound, the sC5b-9/ALB [19] was 203 ng/mg, the sC5b-9/Cr [19] was 11.9 µg/mmol and the “Urine sC5b-9” value (Patient C, 200 mg TID, Day 1 predose) was 21.5 ng/mL. For the same compound, the “Urine sC5b-9” value (Patient C, 200 mg TID, Day 4) was <8.8 ng/mL, the sC5b-9/ALB (Patient C, 200 mg TID, Day 4) was 173 ng/mg and the sC5b-9/Cr (Patient C, 200 mg TID, Day 4) was 4.63 µg/mmol. For the same compound, the “Urine sC5b-9” value (Patient C, 200 mg TID, Day 7) was <8.8 ng/mL, the sC5b-9/ALB [20] was 110 ng/mg and the sC5b-9/Cr [20] was 2.38 µg/mmol. For the same compound, the “Urine sC5b-9” value (Patient C, 200 mg TID, Day 10) was <8.8 ng/mL, the sC5b-9/ALB (Patient C, 200 mg TID, Day 10) was 160 ng/mg and the sC5b-9/Cr (Patient C, 200 mg TID, Day 10) was 5.50 µg/mmol. The “Urine sC5b-9” value (Patient C, 200 mg TID, Day 14) was <8.8 ng/mL, the sC5b-9/ALB (Patient C, 200 mg TID, Day 14) was 220 ng/mg and the sC5b-9/Cr (Patient C, 200 mg TID, Day 14) was 6.77 µg/mmol. For the same compound, the “Urine sC5b-9” value [21] was <8.8 ng/mL, the sC5b-9/ALB [21] was 131 ng/mg and the sC5b-9/Cr [21] was 5.87 µg/mmol. For the same compound, the “Urine sC5b-9” value [22] was <8.8 ng/mL, the sC5b-9/ALB [22] was 176 ng/mg and the sC5b-9/Cr [22] was 4.63 µg/mmol. The “Urine sC5b-9” value [23] was <8.8 ng/mL, the sC5b-9/ALB [23] was 126 ng/mg and the sC5b-9/Cr [23] was 4.00 µg/mmol. For the same compound, the “Urine sC5b-9” value [24] was 10.3 ng/mL, the sC5b-9/ALB [24] was 158 ng/mg and the sC5b-9/Cr [24] was 3.67 µg/mmol. For the same compound, the “Urine sC5b-9” value [25] was 11.0 ng/mL, the sC5b-9/ALB [25] was 186 ng/mg and the sC5b-9/Cr [25] was 6.11 µg/mmol. The “Urine sC5b-9” value [26] was 21.2 ng/mL, the sC5b-9/ALB [26] was 154 ng/mg and the sC5b-9/Cr [26] was 7.32 µg/mmol. The “Urine sC5b-9” value [27] was 14.0 ng/mL, the sC5b-9/ALB [27] was 149 ng/mg and the sC5b-9/Cr [27] was 3.04 µg/mmol. The “Urine sC5b-9” value (Patient C, 200 mg TID, Screen) was 32.1 ng/mL, the sC5b-9/ALB (Patient C, 200 mg TID, Screen) was 387 ng/mg and the sC5b-9/Cr (Patient C, 200 mg TID, Screen) was 16.9 µg/mmol. For the same compound, the “Urine sC5b-9” value [28] was 57.4 ng/mL, the sC5b-9/ALB [28] was 422 ng/mg and the sC5b-9/Cr [28] was 52.2 µg/mmol. For the same compound, the sC5b-9/ALB [29] was 22 ng/mg, the sC5b-9/Cr [29] was 4.8 µg/mmol and the “Urine sC5b-9” value (Patient D, 200 mg TID, Day 1 predose) was 28.1 ng/mL. The “Urine sC5b-9” value (Patient D, 200 mg TID, Day 4) was 18.5 ng/mL, the sC5b-9/ALB (Patient D, 200 mg TID, Day 4) was 15 ng/mg and the sC5b-9/Cr (Patient D, 200 mg TID, Day 4) was 4.1 µg/mmol. For the same compound, the “Urine sC5b-9” value (Patient D, 200 mg TID, Day 7) was 15.8 ng/mL, the sC5b-9/ALB [30] was 43 ng/mg and the sC5b-9/Cr [30] was 14.3 µg/mmol. For the same compound, the “Urine sC5b-9” value (Patient D, 200 mg TID, Day 10) was 8.9 ng/mL, the sC5b-9/ALB (Patient D, 200 mg TID, Day 10) was 14 ng/mg and the sC5b-9/Cr (Patient D, 200 mg TID, Day 10) was 8.9 µg/mmol. For the same compound, the “Urine sC5b-9” value (Patient D, 200 mg TID, Day 14) was 12.0 ng/mL, the sC5b-9/ALB (Patient D, 200 mg TID, Day 14) was 13 ng/mg and the sC5b-9/Cr (Patient D, 200 mg TID, Day 14) was 3.9 µg/mmol. The “Urine sC5b-9” value [31] was 20.3 ng/mL, the sC5b-9/ALB [31] was 10 ng/mg and the sC5b-9/Cr [31] was 4.8 µg/mmol. The “Urine sC5b-9” value [32] was 15.3 ng/mL, the sC5b-9/ALB [32] was 9 ng/mg and the sC5b-9/Cr [32] was 5.3 µg/mmol.
